The values that follow come from patent US6693108B2, “Inhibitors of c-JUN N terminal kinases (JNK) and other protein kinases” (Vertex Pharmaceuticals Incorporated, priority 1999, dated 2004).

pKi: −log10 of the molar value.

For the experiment, the target named is T1, activated JNK3 (Homo sapiens, UniProt P53779).
T1 construct: One such construct encodes amino acid residues Ser40-Glu402 of JNK3α1 and is preceded by Met and Gly residues; Met-Gly (initiation Met plus Gly added to create the NcoI site) (N); made in house; host or cells: E. coli BL21 (DE3)
T1 sequence (P53779 40-402): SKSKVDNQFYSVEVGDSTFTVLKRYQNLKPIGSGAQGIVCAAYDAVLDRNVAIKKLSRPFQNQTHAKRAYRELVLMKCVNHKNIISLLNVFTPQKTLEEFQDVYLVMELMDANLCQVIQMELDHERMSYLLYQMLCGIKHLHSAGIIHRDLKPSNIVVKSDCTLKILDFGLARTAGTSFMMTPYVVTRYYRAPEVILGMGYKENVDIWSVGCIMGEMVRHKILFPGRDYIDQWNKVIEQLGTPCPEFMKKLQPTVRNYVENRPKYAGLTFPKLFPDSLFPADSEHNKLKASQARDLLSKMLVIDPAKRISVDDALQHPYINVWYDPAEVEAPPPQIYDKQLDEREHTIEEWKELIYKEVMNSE
The experiment is described as follows: JNK3 inhibition, spectrophotometric coupled-enzyme assay. The following applies: read-out: Activity in the JNK3 Inhibition Assay (Ki rating). The experiment is classed as biochemical. An excerpt: A BLAST search of the EST database using the published JNK3α1 cDNA as a query identified an EST clone (#632588) that contained the entire coding sequence for human JNK3α1. Polymerase chain reactions (PCR) using pfu polymerase (Strategene) were used to introduce restriction sites into the cDNA for cloning into the pET-15B expression vector at the NcoI and BamHI sites. The protein was expressed in E. coli. […] This truncation corresponds to Ser 2 of JNK1 and JNK2 proteins, and is preceded by a methionine (initiation) and a glycine residue. The glycine residue was added in order to introduce an NcoI site for cloning into the expression vector. In addition, systematic C-terminal truncations were performed by PCR to identify a construct that give rise to diffraction-quality crystals.
5 mg of JNK3 was diluted to 0.5 mg/ml in 50 mM HEPES buffer, pH 7.5, containing 100 mM NaCl, 5 mM DTT, 20 mM MgCl2 and 1 mM ATP. GST-MKK7(DD) was added at a molar ratio of 1:2.5 GST-MKK7:JNK3. After incubation for 30 minutes at 25° C., the reaction mixture was concentrated 5-fold by ultrafiltration in a Centriprep-30 (Amicon, Beverly, Mass.), diluted to 10 ml and an additional 1 mM ATP added. This procedure was repeated three times to remove ADP and replenish ATP. The final addition of ATP was 5 mM and the mixture incubated overnight at 4° C.
The activated JNK3/GST-MKK7(DD) reaction mixture was exchanged into 50 mM HEPES buffer, pH 7.5, containing 5 mM DTT and 5% glycerol (w/v) by dialysis or ultrafiltration. The reaction mixture was adjusted to 1.1 M potassium phosphate, pH 7.5, and purified by hydrophobic interaction chromatography (at 25° C.) using a Rainin Hydropore column. […] Activated JNK3 (i.e. doubly phosphorylated JNK3) was stored at −70° C. at 0.25-1 mg/ml.
Compounds were assayed for the inhibition of JNK3 by a spectrophotometric coupled-enzyme assay. In this assay, a fixed concentration of activated JNK3 (10 nM) was incubated with various concentrations of a potential inhibitor dissolved in DMSO for 10 minutes at 30° C. in a buffer containing 0.1 M HEPES buffer, pH 7.5, containing 10 mM MgCl2, 2.5 mM phosphoenolpyruvate, 200 μM NADH, 150 μg/mL pyruvate kinase, 50 μg/mL lactate dehydrogenase, and 200 μM EGF receptor peptide. […] The reaction was initiated by the addition of 10 μM ATP and the assay plate is inserted into the spectrophotometer's assay plate compartment that was maintained at 30° C. The decrease of absorbance at 340 nm was monitored as a function of time. The rate data as a function of inhibitor concentration was fitted to competitive inhibition kinetic model to determine the Ki.
Consider `Cc1onc(-c2ccccc2)c1-c1ccnc(Nc2cccc(CCC(=O)O)c2)c1` [IIA-132], for which the pKi was over 7.00.

On to `Cc1onc(-c2ccccc2)c1-c1ccnc(Nc2cccc(CC(=O)O)c2)c1` [IIA-133], for which the pKi was over 7.00.

With `Cc1onc(-c2ccccc2)c1-c1ccnc(Nc2cccc(CO)c2)c1` [IIA-134], the pKi was over 7.00.

On to `Cc1onc(-c2ccccc2)c1-c1ccnc(Nc2cccc(CCC(=O)N[C@@H](C(=O)OC(C)(C)C)C(C)C)c2)c1` [IIA-135], for which the pKi is 6.00 to 7.00.

With `Cc1onc(-c2ccccc2)c1-c1ccnc(Nc2ccc3ccccc3c2)n1` [IIAA-4], the pKi is 6.00 to 7.00.

As for `COc1ccc2cc(Nc3nccc(-c4c(-c5ccccc5)noc4C)n3)ccc2c1` [IIAA-10], the pKi was over 7.00.

`Cc1onc(-c2ccccc2)c1-c1ccnc(Nc2ccc3c(c2)CCC3=O)n1` [IIAA-11]: the pKi was over 7.00.

Turning to `Cc1ccnc(Nc2nccc(-c3c(-c4ccccc4)noc3C)n2)c1` [IIAA-12], the pKi is over 7.00.

Consider `Cc1onc(-c2ccccc2)c1-c1ccnc(Nc2cccc3ccccc23)n1` [IIAA-13], for which the pKi is over 7.00.

`COc1ccc2cc(Nc3nccc(-c4c(-c5c(F)cccc5F)noc4C)n3)ccc2c1` [IIAA-14]: the pKi was over 7.00.

Regarding `Cc1ccc2ccccc2c1Nc1nccc(-c2c(-c3ccccc3)noc2C)n1` [IIAA-15], the pKi is 6.00 to 7.00.

For `COC(=O)c1ccc2cc(Nc3nccc(-c4c(-c5ccccc5)noc4C)n3)ccc2c1` [IIAA-16], the pKi is over 7.00.

`COc1ccc2ccccc2c1Nc1nccc(-c2c(-c3ccccc3)noc2C)n1` [IIAA-17]: the pKi is under 6.00.

Turning to `COCc1ccc2ccccc2c1Nc1nccc(-c2c(-c3ccccc3)noc2C)n1` [IIAA-18], the pKi was 6.00 to 7.00.

Take `COc1ccc2cc(Nc3nccc(-c4c(-c5ccccc5C)noc4C)n3)ccc2c1` [IIAA-19]: the pKi was over 7.00.

Take `Cc1ccc2cc(Nc3nccc(-c4c(-c5ccccc5C)noc4C)n3)ccc2n1` [IIAA-20]: the pKi was 6.00 to 7.00.

On to `Cc1ccc2cc(Nc3nccc(-c4c(-c5cccc([N+](=O)[O-])c5)noc4C)n3)ccc2n1` [IIAA-22], for which the negative logarithm of the Ki (pKi) is 6.00 to 7.00.

For the compound `Cc1ccc2cc(Nc3nccc(-c4c(-c5cccc(C#N)c5)noc4C)n3)ccc2n1` [IIAA-23], the pKi is 6.00 to 7.00.

As to `Cc1onc(-c2ccccc2)c1-c1ccnc(NC2CCCCC2)n1` [IIAA-24], the pKi was over 7.00.

`Cc1onc(-c2ccccc2)c1-c1ccnc(NC2Cc3ccccc3C2)n1` [IIAA-25]: the pKi was over 7.00.

Turning to `Cc1onc(-c2ccccc2)c1-c1ccnc(NC2CCN(Cc3ccccc3)CC2)n1` [IIAA-27], the pKi was 6.00 to 7.00.

For `Cc1onc(-c2ccccc2)c1-c1ccnc(NCC2CCCO2)n1` (centres unmarked) [IIAA-29], the pKi was 6.00 to 7.00.

Consider `CCOC(=O)N1CCC(Nc2nccc(-c3c(-c4ccccc4)noc3C)n2)CC1` [IIAA-31], for which the pKi is over 7.00.

Regarding `Cc1onc(-c2ccccc2)c1-c1ccnc(NC2CCNCC2)n1` [IIAA-32], the pKi is 6.00 to 7.00.

Consider `Cc1onc(-c2ccccc2)c1-c1ccnc(N[C@H]2CC[C@H](O)CC2)n1` [IIAA-36], for which the pKi was over 7.00.

Turning to `Cc1onc(-c2ccccc2)c1-c1ccnc(NC2CCC(=O)CC2)n1` [IIAA-38], the pKi was over 7.00.

In the case of `Cc1onc(-c2ccccc2)c1-c1ccnc(NC(=O)c2ccccc2)n1` [IIIA-1], the pKi is 6.00 to 7.00.

Take `Cc1onc(-c2ccccc2)c1-c1ccnc(NC(=O)c2ccccc2Br)n1` [IIIA-2]: the pKi was under 6.00.

For `Cc1onc(-c2ccccc2)c1-c1ccnc(NC(=O)c2ccccc2F)n1` [IIIA-3], the pKi was 6.00 to 7.00.

As to `Cc1onc(-c2ccccc2)c1-c1ccnc(NC(=O)c2ccccc2Cl)n1` [IIIA-4], the pKi is under 6.00.

With `Cc1ccccc1C(=O)Nc1nccc(-c2c(-c3ccccc3)noc2C)n1` [IIIA-5], the pKi is under 6.00.

Regarding `Cc1cccc(C(=O)Nc2nccc(-c3c(-c4ccccc4)noc3C)n2)c1` [IIIA-6], the pKi is 6.00 to 7.00.

In the case of `COc1ccc(C(=O)Nc2nccc(-c3c(-c4ccccc4)noc3C)n2)cc1` [IIIA-7], the pKi was 6.00 to 7.00.

Regarding `COc1ccc(C(=O)Nc2nccc(-c3c(-c4ccccc4)noc3C)n2)cc1OC` [IIIA-8], the pKi was 6.00 to 7.00.

Turning to `COc1ccc(C(=O)Nc2nccc(-c3c(-c4ccccc4)noc3C)n2)c(OC)c1` [IIIA-9], the pKi was under 6.00.

For the compound `COc1cccc(OC)c1C(=O)Nc1nccc(-c2c(-c3ccccc3)noc2C)n1` [IIIA-10], the pKi is under 6.00.

Regarding `Cc1onc(-c2ccccc2)c1-c1ccnc(NC(=O)c2ccc(C#N)cc2)n1` [IIIA-11], the pKi was 6.00 to 7.00.

Consider `Cc1onc(-c2ccccc2)c1-c1ccnc(NC(=O)c2ccc(F)cc2)n1` [IIIA-14], for which the pKi was 6.00 to 7.00.

For the compound `Cc1onc(-c2ccccc2)c1-c1ccnc(NC(=O)c2cccs2)n1` [IIIA-15], the pKi was over 7.00.

As to `COc1cc(C(=O)Nc2nccc(-c3c(-c4ccccc4C)noc3C)n2)cc(OC)c1OC` [IIIA-18], the pKi is 6.00 to 7.00.

Take `COc1cccc(C(=O)Nc2nccc(-c3c(-c4ccccc4C)noc3C)n2)c1` [IIIA-19]: the pKi was 6.00 to 7.00.

For the compound `COc1ccc(C(=O)Nc2nccc(-c3c(-c4ccccc4C)noc3C)n2)cc1` [IIIA-20], the pKi was 6.00 to 7.00.

Consider `COc1cc(OC)cc(C(=O)Nc2nccc(-c3c(-c4ccccc4C)noc3C)n2)c1` [IIIA-21], for which the pKi was 6.00 to 7.00.

Turning to `COc1cc(C(=O)Nc2nccc(-c3c(-c4ccccc4C(F)(F)F)noc3C)n2)cc(OC)c1OC` [IIIA-22], the pKi is under 6.00.

For the compound `COc1cccc(C(=O)Nc2nccc(-c3c(-c4ccccc4C(F)(F)F)noc3C)n2)c1` [IIIA-23], the pKi is under 6.00.

As to `COc1ccc(C(=O)Nc2nccc(-c3c(-c4ccccc4C(F)(F)F)noc3C)n2)cc1` [IIIA-24], the pKi was under 6.00.

In the case of `COc1cc(OC)cc(C(=O)Nc2nccc(-c3c(-c4ccccc4C(F)(F)F)noc3C)n2)c1` [IIIA-25], the pKi was under 6.00.

Take `COc1cc(C(=O)Nc2nccc(-c3c(-c4cccc(OCc5ccccc5)c4)noc3C)n2)cc(OC)c1OC` [IIIA-30]: the pKi was 6.00 to 7.00.

Take `COc1cccc(C(=O)Nc2nccc(-c3c(-c4cccc(OCc5ccccc5)c4)noc3C)n2)c1` [IIIA-31]: the pKi is 6.00 to 7.00.

Consider `COc1ccc(C(=O)Nc2nccc(-c3c(-c4cccc(OCc5ccccc5)c4)noc3C)n2)cc1` [IIIA-32], for which the pKi was 6.00 to 7.00.

As for `COc1cc(OC)cc(C(=O)Nc2nccc(-c3c(-c4cccc(OCc5ccccc5)c4)noc3C)n2)c1` [IIIA-33], the pKi is 6.00 to 7.00.

For the compound `COc1cc(C(=O)Nc2nccc(-c3c(-c4cccc([N+](=O)[O-])c4)noc3C)n2)cc(OC)c1OC` [IIIA-34], the pKi was under 6.00.

For `COc1cccc(C(=O)Nc2nccc(-c3c(-c4cccc([N+](=O)[O-])c4)noc3C)n2)c1` [IIIA-35], the pKi was under 6.00.

Turning to `COc1ccc(C(=O)Nc2nccc(-c3c(-c4cccc([N+](=O)[O-])c4)noc3C)n2)cc1` [IIIA-36], the pKi is under 6.00.

Take `COc1cc(OC)cc(C(=O)Nc2nccc(-c3c(-c4cccc([N+](=O)[O-])c4)noc3C)n2)c1` [IIIA-37]: the negative logarithm of the Ki (pKi) is under 6.00.

With `COc1cc(C(=O)Nc2nccc(-c3c(-c4cccc(C#N)c4)noc3C)n2)cc(OC)c1OC` [IIIA-38], the pKi is under 6.00.

As to `COc1cccc(C(=O)Nc2nccc(-c3c(-c4cccc(C#N)c4)noc3C)n2)c1` [IIIA-39], the pKi was under 6.00.

In the case of `COc1ccc(C(=O)Nc2nccc(-c3c(-c4cccc(C#N)c4)noc3C)n2)cc1` [IIIA-40], the pKi was under 6.00.

Regarding `COc1cc(OC)cc(C(=O)Nc2nccc(-c3c(-c4cccc(C#N)c4)noc3C)n2)c1` [IIIA-41], the pKi is under 6.00.

Turning to `COc1cc(OC)cc(C(=O)Nc2nccc(-c3c(-c4ccccc4)noc3C)n2)c1` [IIIA-42], the pKi is 6.00 to 7.00.

With `Cc1onc(-c2ccccc2)c1-c1ccnc(NC(=O)c2cccc(C#N)c2)n1` [IIIA-43], the pKi was over 7.00.

Turning to `COC(=O)c1ccc(C(=O)Nc2nccc(-c3c(-c4ccccc4)noc3C)n2)cc1` [IIIA-44], the pKi is 6.00 to 7.00.

What is called pKi is the negative decadic logarithm of the Ki, by convention in mol/L.
